Measured values as given in patent US10066272B2, “Human homeobox gene ventx and macrophage terminal differentiation and activation, compositions and methods thereof” (priority 2011, dated 2018).

Legend:
Type in all cases: cell-based, human
VentX = VentX expression during cytokine-induced monocyte to macrophage differentiation (RT-PCR, western blot); details: monocytes cultured with cytokine at 100 ng/ml (FIG. 1B)
Experimental: (B) VentX expression during monocyte to macrophage differentiation in vitro. Monocytes were cultured in the presence of M-CSF (M), GM-CSF (GM) or IL3 for indicated days or in the absence of cytokines for 3 days. […] VentX expression in freshly isolated monocytes was used as baseline control (Day 0). […] (D) Time course of VentX expression during in vitro induction of monocytes differentiation into macrophages. Monocytes were subjected to M-CSF treatment in vitro for indicated time. The VentX mRNA levels were determined by quantitative PCR for up to 7 days.
Peripheral blood mononuclear cells (PBMC) from healthy adult donors at Children's Hospital Boston were isolated by Ficoll density gradient centrifugation. […] CD14^+ monocytes were purified from PBMCs using anti-CD14-coated microbeads (Miltenyi Biotec). The purity of freshly isolated CD14^+ monocytes was more than 95% as analyzed by flow cytometry. Monocytes were cultured in 12-well plates at 1×10^6 cells/ml with RPMI 1640 medium containing 10% fetal bovine serum (FBS). […]
Total RNA was isolated by the TRIzol reagent, and an equal amount of RNA was used for first-strand cDNA synthesis with SuperScript III First-Strand Synthesis System (Invitrogen) according to the manufacturer's protocol. […] Quantitative measurement of VentX and cytokines cDNA were performed with SYBR Green on a LightCycler® (480 Real-Time PCR System; Roche).

primary monocytes = assay: Monocyte to macrophage differentiation after siRNA transfection, surface markers by FACS; details: monocytes, 100 ng/mL M-CSF, 4 days after transfection (FIG. 12)
Experimental: (A) knockdown of VentX expression in primary monocytes by RNA interference. Monocytes were transfected with siRNA against GFP or VentX through electroporation. VentX mRNA levels were determined by real time PCR at 3 days after transfection (left); VentX protein level was determined by western blotting at 4 days after transfection (right). (B) Effects of VentX knockdown on macrophage morphogenesis during M-CSF induced differentiation. Monocytes were transfected with either siGFP or siVentX and subsequently exposed to 100 ng/mL M-CSF. […] Magnification of photographs, ×200. Note: a portion of cells lost their original morphology during Wright-Giemsa staining procedure. (C) Effects of VentX knockdown on macrophage surface expression of CD71. […] Filled blue histogram represents the isotope control staining; red histogram represents monocytes transfected with siGFP; green histogram represents monocytes transfected with siVentX. (D) Bar graphs show mean+SD of 6 different experiments in (C). Paired t test was used to reveal the statistical significance. **p<0.01.
(A) Left panel: Flow cytometry analysis of indicated surface markers in monocytes transfected with siGFP or siVentX, respectively; right panel: bar graphs show the mean+SD of at least three separate experiments. *p<0.05; **p<0.01. (B) Effects of VentX knockdown on macrophage viability. Monocytes were transfected with either siGFP or siVentX and subsequently exposed to 100 ng/mL M-CSF for 3 days. Cells were then harvested and stained with PI and Annexin V and analyzed by flow cytometry. (C) Effects of VentX knockdown on phagocytosis. Monocytes were transfected with siGFP or siVentX. Phagocytosis assays were carried out as described in materials and methods. […]
Surface expression of CD71 was determined by FACS analysis at 4 days after siRNA transfection. […]
Peripheral blood mononuclear cells (PBMC) from healthy adult donors at Children's Hospital Boston were isolated by Ficoll density gradient centrifugation. […] The purity of freshly isolated CD14^+ monocytes was more than 95% as analyzed by flow cytometry. […]

[1] = test system: cytokine mRNA expression in macrophages; assay: Effects of VentX knockdown on cytokine mRNA expression in macrophages (real-time PCR); set-up: unit not given here; details: macrophages transfected with siRNA; classical activation by LPS plus IFN-γ
Experimental: Macrophages were generated through incubation of freshly isolated monocytes with 100 ng/mL M-CSF for 4 days. These macrophages were then transfected with siGFP or siVentX, respectively, and further cultured in RPMI 1640 medium for additional 3 days. Thereafter, cells were exposed to 1 μg/mL LPS plus 20 ng/mL γ-IFN for 6 hours. (A) Surface staining of CD40, CD80, CD86 and HLA-DR and intracellular staining of TNF-α and IL1-β were analyzed by flow cytometry. (B) Secreted TNF-α, IL1-β and IL12p70 from culture supernatants were determined with ELISA kits. (C) Reactive oxygen species (ROS) from siGFP or siVentX transfected macrophages were analyzed with fluorescence microscope (left) and flow cytometry (middle). […] (D) Nitrate level from siGFP and siVentX transfected macrophages. Data represent mean+SD of three different experiments. (E) Phagocytosis of siGFP and siVentX transfected macrophage. Red histogram represents transfection with siGFP; green histogram represents transfection with siVentX. Left panel: cells were incubated on ice; right panel: cells were incubated at 37° C. (F) Effects of VentX knockdown on mixed lymphocyte reaction. Irradiated macrophages that had been transfected with siGFP or siVentX were utilized to stimulate allogenic naïve CD4 T cells proliferation. The proliferation rates were represented by counts per minute (CPM). […] Statistically significant difference (p<0.05) was observed when 4×10^2 or 2×10^3 cells were added.
(Martinez, et al. 2008 Front Biosci 13:453-461; Mosser, et al. 2008 Nat Rev Immunol 8:958-969.) To investigate whether VentX is required for classical activation of macrophages, a loss-of-function approach by knockdown of VentX was used.
Human primary monocytes were transfected using the Human Monocyte Nucleofector Kit (Lonza) according to the manufacturer's instructions. Briefly, 5×10^6monocytes were resuspended into 100 μl nucleofector solution with 0.5 nmol of either VentX siRNA (forward: 5′-[…]-3′ (SEQ ID NO:4); reverse: 5′-[…]-3′ (SEQ ID NO:5)) or non-effective GFP siRNA (forward: 5′-[…]-3′ (SEQ ID NO:6); 5′-reverse: […]-3′ (SEQ ID NO:7)) before electroporation with nucleofector II Device (Lonza). Cells were then immediately removed from the device and incubated overnight with 1 ml pre-warmed Human Monocyte Nucleofector Medium containing 2 mM glutamine and 10% FBS. Cells were then resuspended into complete RPMI medium and treated with appropriate cytokines to induce differentiation into macrophages. Similarly, macrophages derived from monocytes were transfected with Human Macrophage Nucleofector Kit (Lonza) following the manufacturer's instructions.
Total RNA was isolated by the TRIzol reagent, and an equal amount of RNA was used for first-strand cDNA synthesis with SuperScript III First-Strand Synthesis System (Invitrogen) according to the manufacturer's protocol. To amplify VentX cDNA with conventional PCR, AccuPrime™ Taq DNA polymerase system (Invitrogen) was used following the manufacturer's instructions. PCR products were separated on 2% agarose gels and stained with ethidium bromide. GAPDH was used as an internal control. Quantitative measurement of VentX and cytokines cDNA were performed with SYBR Green on a LightCycler® (480 Real-Time PCR System; Roche). The primers used are listed in the Sequence Listing (SEQ ID NOs: 24-109).

GM-CSF: granulocyte macrophage colony-stimulating factor, purchased from PeproTech
VentX expression during monocyte to macrophage differentiation (VentX): up-regulated

VentX siRNA-2: second siRNA sequence against VentX, 5′-UCUACUCAACGUCUUCUGGCCUUGCCAAU-3′ (SEQ ID NO:3) (listed as RNA, chemistry not given here)
surface expression of CD71 and other markers (primary monocytes): down-regulated

siGFP: non-effective GFP siRNA, forward 5′-UGACCACCCUGACCUACGGCGUGCAGUGC-3′ (SEQ ID NO:6), reverse SEQ ID NO:7 (antisense GCACUGCACGCCGUAGGUCAGGGUGGUCA; listed as RNA, chemistry not given here) [reference compound]
IL1-β cytokine mRNA expression [1]: 51.08 ± 3.2
IL6 cytokine mRNA expression [1]: 3.40 ± 0.21
IL8 cytokine mRNA expression [1]: 471 ± 10.2
IL12p35 cytokine mRNA expression [1]: 1.77 ± 0.21
IL12p40 cytokine mRNA expression [1]: 0.52 ± 0.02
M-SCSF cytokine mRNA expression [1]: 0.40 ± 0.01
TNF-α cytokine mRNA expression [1]: 0.46 ± 0.04

B1: M-CSF: macrophage colony-stimulating factor, purchased from PeproTech (protein, UniProt P09603 33-554, looked up)
Macrophage colony-stimulating …: EEVSEYCSHMIGSGHLQSLQRLIDSQMETSCQITFEFVDQEQLKDPVCYLKKAFLLVQDIMEDTMRFRDNTPNAIAIVQLQELSLRLKSCFTKDYEEHDKACVRTFYETPLQLLEKVKNVFNETKNLLDKDWNIFSKNCNNSFAECSSQDVVTKPDCNCLYPKAIPSSDPASVSPHQPLAPSMAPVAGLTWEDSEGTEGSSLLPGEQPLHTVDPGSAKQRPPRSTCQSFEPPETPVVKDSTIGGSPQPRPSVGAFNPGMEDILDSAMGTNWVPEEASGEASEIPVPQGTELSPSRPGGGSMQTEPARPSNFLSASSPLPASAKGQQPADVTGTALPRVGPVRPTGQDWNHTPQKTDHPSALLRDPPEPGSPRISSLRPQGLSNPSTLSAQPQLSRSHSSGSVLPLGELEGRRSTRDRRSPAEPEGGPASEGAARPLPRFNSVPLTDTGHERQSEGSFSPQLQESVFHLLVPSVILVLLAVGGLLFYRWRRRSHQEPQRADSPLEQPEGSPLTQDDRQVELPV
VentX expression during monocyte to macrophage differentiation (VentX): up-regulated
